Test results as given in US20190350964A1, “ANTI-CANCER COMPOUNDS AND USES THEREOF” (NATIONAL UNIVERSITY OF SINGAPORE, priority 2016, published 2019).

Tests used:
ARPE-19 = experiment: MTT cytotoxicity test (GI50); format: cell-based; conditions: Homo sapiens; ARPE-19, normal, retina; MTT 72 h
HGC27 = experiment: MTT cytotoxicity test (GI50); format: cell-based; conditions: Homo sapiens, HGC-27; HGC27, cancer, gastric; MTT 72 h
transformed BJ cells = experiment: FACS analysis of the cell cycle (BrdU and PI double staining); format: cell-based, human; conditions: 2.5 μM, 48 h
Protocol: (§1) Cell death was assessed via Annexin V and/or PI (propidium iodide) staining according to the manufacturer's instructions (eBioscience). Cell growth arrest was assessed by direct measurement of DNA synthesis through incorporation of the nucleoside analog bromodeoxyuridine (BrdU). Briefly, BrdU (30 μM, Sigma-Aldrich) was added for 2 h before harvesting cells. Cells were subsequently stained with Pacific Blue-conjugated BrdU antibody (Invitrogen) for 1 h followed by PI staining. Stained cells were analyzed by MACSQuant (MACS). Three independent experiments were performed in triplicate. The percentage of Annexin V/PI- or BrdU-positive cells was quantified using Flow Jo software (Becton Dickinson). Where indicated, the combined activity of caspase-3/7 was determined using the caspase-Glo 3/7 Assay Kit (Promega) and normalized to the number of viable cells as determined by MTT assay.

[1] = molecular target: T1, Retinal rod rhodopsin-sensitive cGMP 3′,5′-cyclic phosphodiesterase subunit delta (Homo sapiens, UniProt O43924); experiment: MS-CETSA in normal BJ cell lysates; format: binding; conditions: lysate, 100 μM compound
T1 construct: After collecting data covering >8,000 proteins in lysates of normal BJ cells; endogenous in cells; host or cells: normal BJ cells, lysate
Protocol: (§2) Target identification was performed by cellular thermal shift assay (CETSA) coupled with quantitative mass spectrometry. In brief, normal BJ cells were lysed by combination of freeze/thaw and mechanical shearing with needle in buffer [50 mM HEPES (pH 7.5), 5 mM β-glycerophosphate, 0.1 mM Sodium Vanadate, 10 mM MgCl2, 1 mM TCEP and 1× Protease inhibitor Cocktail]. The cell debris was removed by centrifugation at 20,000 g for 20 min at 4° C. […] Each lysate was divided into 10 aliquots for heat treatment at the respective temperatures for 3 min in a 96-well thermocycler, followed by 3 min at 4° C. The lysate was centrifuged at 20,000 g for 20 min at 4° C. and the supernatant was transferred into microtubes for MS sample preparation.
(§3) After lysis, at least 100 μg of the protein (measured with a BCA assay) was subjected to reduction, denaturation and alkylation. Samples were subsequently incubated with sequencing grade LysC (Wako) and trypsin (Promega) for digestion overnight at 37° C. The digested samples were dried using a centrifugal vacuum evaporator, solubilized in 100 mM TEAB. […]
(§4) Proteins for which a low temperature plateau was not present were deleted using a cut off >0.85 for the average reading of the first three temperature points (in our experience proteins melting already at −37° C. are more prone to give false positives in a shift analysis).

HT29 = experiment: MTT cytotoxicity test (GI50); format: cell-based; conditions: Homo sapiens, HT-29; HT29, cancer, colon; MTT 72 h
[2] = molecular target: T2, 3-hydroxybutyrate dehydrogenase type 2 (Homo sapiens, UniProt Q9BUT1); experiment: MS-CETSA in normal BJ cell lysates; format: binding; conditions: lysate, 100 μM compound
T2 construct: After collecting data covering >8,000 proteins in lysates of normal BJ cells; endogenous in cells; host or cells: normal BJ cells, lysate
Protocol: as §2, §3, §4

RNA-binding protein 4 = molecular target: T3, RNA-binding protein 4 (Homo sapiens, UniProt Q9BWF3); experiment: MS-CETSA in normal BJ cell lysates; conditions: lysate, 100 μM compound
T3 construct: After collecting data covering >8,000 proteins in lysates of normal BJ cells; endogenous in cells; host or cells: normal BJ cells, lysate
Protocol: as §2, §3, §4

Huh7 = experiment: MTT cytotoxicity test (GI50); format: cell-based; conditions: Homo sapiens, Huh-7; Huh7, cancer, liver; MTT 72 h
Ras/Raf/MEK/ERK pathway = experiment: Immunoblot of ERK phosphorylation; format: cell-based, human; conditions: normal BJ cells, 24 h
Protocol: Total cell lysates were prepared with 1% triton lysis buffer [25 mM Tris HCl (pH 8.0), 150 mM NaCl, 1% triton-X100, 1 mM dithiothreitol (DTT), protease inhibitor mix (Complete Mini, Roche) and phosphatase inhibitor (PhosphoStop, Roche)] and subjected to SDS-PAGE. The following antibodies were used for immunoblotting: anti-β-actin (Sigma-Aldrich), anti-cleaved PARP (Abcam, #ab32064), anti-PI5P4Kα (#5527), anti-PI5P4Kβ (#9694), anti-cleaved caspase-3 (#9664), anti-pHistone H3(Ser10) (#3377), anti-pAkt(S473) (#9271), anti-pAkt(T308) (#13038), anti-total Akt (#9272), anti-p70S6K(T389) (#9234), anti-total p70S6K (#9202), anti-pErk (#4370), anti-γ-Histone H2AX (#9718) (Cell signaling) and anti-PIK3IP1 (Proteintech, #16826-1-AP). The secondary antibodies used were sheep anti-mouse IgG HRP and donkey anti-rabbit IgG HRP (Amersham; 1:2000 dilution). Immunoreactive proteins were visualized using ECL reagent (Amersham). Where indicated, intensities of protein bands were quantified by densitometry (Odyssey V3.0), normalized to their loading controls and then calculated as fold expression change relative to DMSO control.

[3] = molecular target: T4, Coproporphyrinogen-III oxidase, mitochondrial (Homo sapiens, UniProt P36551); experiment: MS-CETSA in normal BJ cell lysates; format: binding; conditions: lysate, 100 μM compound
T4 construct: After collecting data covering >8,000 proteins in lysates of normal BJ cells; endogenous in cells; host or cells: normal BJ cells, lysate
Protocol: as §2, §3, §4

[4] = molecular target: T5, Arsenite methyltransferase (Homo sapiens, UniProt Q9HBK9); experiment: MS-CETSA in normal BJ cell lysates; format: binding; conditions: lysate, 100 μM compound
T5 construct: After collecting data covering >8,000 proteins in lysates of normal BJ cells; endogenous in cells; host or cells: normal BJ cells, lysate
Protocol: as §2, §3, §4

NCC19 = experiment: MTT cytotoxicity test (GI50); format: cell-based; conditions: Homo sapiens; NCC19, cancer, gastric; MTT 72 h
MKN45 = experiment: MTT cytotoxicity test (GI50); format: cell-based; conditions: Homo sapiens, MKN-45; MKN45, cancer, gastric; MTT 72 h
normal BJ cells = experiment: BrdU incorporation / cell growth arrest; format: cell-based, human
Protocol: as §1

SNU-16 = experiment: MTT cytotoxicity test (GI50); format: cell-based; conditions: Homo sapiens; SNU-16, cancer, gastric; MTT 72 h
AZ521 = experiment: MTT cytotoxicity test (GI50); format: cell-based; conditions: Homo sapiens, AZ-521; AZ521, cancer, gastric; MTT 72 h
A549 = experiment: MTT cytotoxicity test (GI50); format: cell-based; conditions: Homo sapiens; A549, cancer, others, lung; MTT 72 h
Adenosine kinase = molecular target: T6, Adenosine kinase (Homo sapiens, UniProt P55263); experiment: MS-CETSA in normal BJ cell lysates; format: binding; conditions: lysate, 100 μM compound
T6 construct: After collecting data covering >8,000 proteins in lysates of normal BJ cells; endogenous in cells; host or cells: normal BJ cells, lysate
Protocol: as §2, §3, §4

PIK3IP1 = experiment: qRT-PCR and immunoblot of PIK3IP1 in BJ cells; format: cell-based, human; conditions: 5 μM, 24 h
Protocol: Total RNA was isolated from cultured cells using the RNeasy mini kit (Qiagen). cDNA was synthesized from 1 μg of total RNA using the iScript cDNA synthesis kit (Bio-Rad). qRT-PCR analysis was performed using the iQ SYBR Green Super mix (Bio-Rad) using the following gene-specific primers:
human PI5P4Kα (5′-[…]-3′; SEQ ID NO: 11, 5′-[…]-3′; SEQ ID NO: 12), human PI5P4Kβ (5′-[…]-3′; SEQ ID NO: 13, 5′-[…]-3′; SEQ ID NO: 14), human PI5P4Kγ (5′-[…]-3′; SEQ ID NO: 15, 5′-[…]-3′; SEQ ID NO: 16) and human PIK3IP1 (5′-[…]-3′; SEQ ID NO: 17, 5′-[…]-3′; SEQ ID NO: 18). The TATA-binding protein (TBP) gene was used for normalization. All PCR reactions were performed in triplicate.
Total cell lysates were prepared with 1% triton lysis buffer [25 mM Tris HCl (pH 8.0), 150 mM NaCl, 1% triton-X100, 1 mM dithiothreitol (DTT), protease inhibitor mix (Complete Mini, Roche) and phosphatase inhibitor (PhosphoStop, Roche)] and subjected to SDS-PAGE. […] Where indicated, intensities of protein bands were quantified by densitometry (Odyssey V3.0), normalized to their loading controls and then calculated as fold expression change relative to DMSO control.

T5 sequence (Q9HBK9 whole entry): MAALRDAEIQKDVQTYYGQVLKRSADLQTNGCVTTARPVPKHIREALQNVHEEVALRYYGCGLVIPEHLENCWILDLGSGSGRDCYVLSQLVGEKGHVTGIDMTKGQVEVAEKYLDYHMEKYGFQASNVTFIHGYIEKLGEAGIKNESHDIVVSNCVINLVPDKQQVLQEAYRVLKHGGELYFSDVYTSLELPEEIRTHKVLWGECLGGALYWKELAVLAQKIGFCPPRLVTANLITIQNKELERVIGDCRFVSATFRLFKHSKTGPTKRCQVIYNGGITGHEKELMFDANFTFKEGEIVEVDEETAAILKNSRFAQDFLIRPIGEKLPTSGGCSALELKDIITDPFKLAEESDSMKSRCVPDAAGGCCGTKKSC
T1 sequence (O43924 whole entry): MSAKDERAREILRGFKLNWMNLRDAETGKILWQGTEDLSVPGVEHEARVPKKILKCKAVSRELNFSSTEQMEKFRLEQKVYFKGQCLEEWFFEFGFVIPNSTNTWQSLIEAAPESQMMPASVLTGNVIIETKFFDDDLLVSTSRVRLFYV
T6 sequence (P55263 whole entry): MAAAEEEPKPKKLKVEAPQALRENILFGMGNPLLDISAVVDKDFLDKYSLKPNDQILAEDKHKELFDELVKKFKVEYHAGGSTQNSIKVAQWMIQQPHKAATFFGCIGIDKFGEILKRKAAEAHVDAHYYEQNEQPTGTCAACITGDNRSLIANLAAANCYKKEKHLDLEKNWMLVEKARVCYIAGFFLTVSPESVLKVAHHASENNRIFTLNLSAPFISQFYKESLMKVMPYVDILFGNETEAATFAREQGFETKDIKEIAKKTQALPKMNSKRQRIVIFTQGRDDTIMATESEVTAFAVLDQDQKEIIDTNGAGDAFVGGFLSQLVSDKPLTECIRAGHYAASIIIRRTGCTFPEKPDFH
T4 sequence (P36551 111-454): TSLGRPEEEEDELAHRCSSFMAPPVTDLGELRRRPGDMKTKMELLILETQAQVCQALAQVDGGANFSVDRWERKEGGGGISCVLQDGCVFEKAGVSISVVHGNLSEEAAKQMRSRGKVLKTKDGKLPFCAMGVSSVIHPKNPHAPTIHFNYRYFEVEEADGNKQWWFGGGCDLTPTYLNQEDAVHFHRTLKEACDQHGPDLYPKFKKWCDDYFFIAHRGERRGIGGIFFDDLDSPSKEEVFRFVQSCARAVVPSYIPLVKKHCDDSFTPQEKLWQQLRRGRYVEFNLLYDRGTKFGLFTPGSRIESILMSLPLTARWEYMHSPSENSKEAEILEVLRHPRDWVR
T2 sequence (Q9BUT1 whole entry): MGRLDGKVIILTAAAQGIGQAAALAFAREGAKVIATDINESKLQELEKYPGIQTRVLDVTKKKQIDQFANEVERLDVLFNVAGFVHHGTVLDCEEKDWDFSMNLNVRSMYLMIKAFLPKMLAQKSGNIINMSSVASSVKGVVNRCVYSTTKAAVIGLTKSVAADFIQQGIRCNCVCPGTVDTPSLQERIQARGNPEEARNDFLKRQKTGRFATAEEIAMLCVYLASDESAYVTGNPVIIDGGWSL
T3 sequence (Q9BWF3 whole entry): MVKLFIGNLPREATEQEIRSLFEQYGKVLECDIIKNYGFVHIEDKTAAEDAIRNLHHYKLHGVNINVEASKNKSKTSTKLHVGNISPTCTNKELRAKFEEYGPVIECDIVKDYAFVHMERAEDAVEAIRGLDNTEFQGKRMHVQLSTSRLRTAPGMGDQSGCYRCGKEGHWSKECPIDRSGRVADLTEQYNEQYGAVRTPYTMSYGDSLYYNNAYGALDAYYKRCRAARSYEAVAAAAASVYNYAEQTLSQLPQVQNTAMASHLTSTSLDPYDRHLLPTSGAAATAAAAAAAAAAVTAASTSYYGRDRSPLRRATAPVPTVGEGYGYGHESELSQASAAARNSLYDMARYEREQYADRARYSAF

N#C/C(=C\c1cccc2cnccc12)c1c[nH]c2ccccc12 [a131, (Z)-2-(1H-indol-3-yl)-3-(5-isoquinolyl)prop-2-enenitrile]
GI50 (ARPE-19): > 10 µM
GI50 (HGC27): 1200 nM
aneuploidy (>4N) (transformed BJ cells): significantly induced aneuploidy (>4N) only in transformed BJ cells
cell death (<2N, subG1) (transformed BJ cells; transformed versus normal BJ cells): dramatically induced cell death (<2N) through apoptosis
ED score [1]: 0.3092
ΔTm at 100 µM ([1]; read-out: mean Delta Tm): 3.02 °C
GI50 (HT29): 900 nM
ED score [2]: 0.5139
ΔTm at 100 µM ([2]; read-out: mean Delta Tm): 1.83 °C
ED score (RNA-binding protein 4): 0.3323
ΔTm at 100 µM (RNA-binding protein 4; read-out: mean Delta Tm): 1.88 °C
GI50 (Huh7): 1200 nM
inhibition of the Ras/Raf/MEK/ERK pathway (ERK phosphorylation) (Ras/Raf/MEK/ERK pathway): Neither a131 and a166 treatment nor PI5P4Ks knockdown inhibited
ED score [3]: 0.3274
ΔTm at 100 µM ([3]; read-out: mean Delta Tm): 1.61 °C
ED score [4]: 0.6214
ΔTm at 100 µM ([4]; read-out: mean Delta Tm): 4.88 °C
GI50 (NCC19): 4.6 µM
GI50 (MKN45): 1000 nM
cell cycle arrest (BrdU incorporation) (normal BJ cells; 2.5 μM, 48 h): arrested normal BJ cells at the G1/S phase of the cell cycle with few BrdU incorporation
reversibility of growth arrest after drug removal (normal BJ cells; 5 μM for 2 or 4 days, then fresh media up to 11 days): transient and reversible after a131 removal
GI50 (SNU-16): 1000 nM
GI50 (AZ521): 2400 nM
GI50 (A549): 2000 nM
ED score (Adenosine kinase): 0.4158
ΔTm at 100 µM (Adenosine kinase; read-out: mean Delta Tm): 1.74 °C
PIK3IP1 mRNA and protein levels (PIK3IP1; normal BJ cells): up-regulation of PIK3IP1 at both the mRNA and protein levels
PIK3IP1 mRNA expression (PIK3IP1; transformed BJ cells): unresponsive
